The text below walks through data of patent US20140235630A1, “COMPOSITIONS AND METHODS FOR THE TREATMENT OF PROLIFERATIVE DISEASES” (Beth Israel Deaconess Medical Center, Inc., priority 2011, published 2014).

Series [1] has as its system tumor microvasculature (CD31) of MMTV-CreBRCA1^f/fp53+/− tumors. Briefly: Tumor vascularization: gross pathology, anti-CD31 stain, Chalkley count. It is filed as in vivo, mouse. The method, then: All animal experiments were conducted in accordance with IACUC-approved protocols at Beth Israel Deaconess Medical Center, Boston, and at the University of Vall d'Hebron, Barcelona, Spain. Female […] were obtained by breeding BRCA1 conditional knockout mice from the NIH repository (01XC8, strain C57BL/6) (Xu et al. Nat. Genet., 22: 37-43, 1999); with MMTV-Cre (Jackson Laboratory B6129-TgN(MMTV-Cre)4Mam) (Wagner et al. Nucleic Acids Res., 25: 4323-4330, 1997) and p53 knockout (Taconic Farms, P53N12-M, C57BL/6) (Donehower et al. Nature, 356: 215-221, 1992). […] The floxed or wild type status of Brca1, the presence of the MMTV-Cre transgene and the p53 heterozygosity were determined by PCR. Mice were examined for the occurrence of tumors twice weekly. When tumormetrics were performed, the length and width of the tumor was determined using calipers, and the tumor volume was determined (width^2×length/2). Tumor volume was used as a measure of growth and was recorded as ratio to tumor volume at diagnosis. […] Proc. Natl. Acad. Sci. USA., 105: 17079-17084, 2008) and dosed at 50 mg/kg/day. For patient-derived tumor grafts consent for tumor use was obtained from patients under a protocol approved by the Vall d'Hebron Hospital Clinical Investigation Ethical Committee. Tumors were subcutaneously implanted in 6-week-old female HsdCpb:NMRI-Foxn1nu mice (Harlan Laboratories, Italy) Animals were supplemented with 1 μM estradiol (Sigma) in the drinking water. After tumor graft growth, tumor tissue was re-implanted into recipient mice, which were randomized upon implant growth. For immunohistochemistry we used anti-cleaved caspase 3 (CC3) (9661S, Cell Signalling, Rabbit polyclonal Asp175), anti-Ki67 (9106-S; Thermo Scientific, Rabbit monoclonal SP6). All other antibodies used are described in the immunoblotting section below. All immunohistochemistries were done as described previously (Burga et al. Breast Cancer Res., 13:[…], 2011) including antigen retrieval with a citrate-buffer. […]

Series [2] can be described thus: Intratumoral Compound A concentration by LC/MS/MS. Particulars: 3 hours after last dose; Compound A 30 mg/kg/day, alone or with Compound B 50 mg/kg/day. The format is in vivo, mouse.
Protocol: FIG. 6F is a graph showing the intratumoral Compound A concentrations as assessed by mass spectrometry of tumor tissues harvested from animals 3 hours after last treatment with Compound A (30 mg/kg/day), Compound B (50 mg/kg/day), or their combination.
Metabolites from 100 mg of mouse tumor samples were extracted using 80% methanol according to Yuan et al. (Nat. Protoc., 7: 872-881, 2012) 10 μL were injected and analyzed using a 5500 QTRAP hybrid triple quadrupole mass spectrometer (AB/SCIEX) coupled to a Prominence UFLC HPLC system (Shimadzu) via selected reaction monitoring (SRM) for the Q1/Q3 transition of 410.8/367.0 for 5-(2,6-dimorpholinopyrimidin-4-yl)-4-(trifluoromethyl)pyridin-2-amine (Compound A). ESI voltage was +4900V in positive ion mode using a dwell time of 4 msec and collision energy of 45. Approximately 15 data points were obtained for Compound A per LC/MS/MS experiment. Samples were delivered to the MS via hydrophilic interaction chromatography (HILIC) using a 4.6 mm i.d×10 cm Amide Xbridge column (Waters) at 350 μL/min. Gradients were run starting from 85% buffer B (HPLC grade acetonitrile) to 42% B from 0-5 minutes; 42% B to 0% B from 5-16 minutes; 0% B was held from 16-24 minutes; 0% B to 85% B from 24-25 minutes; 85% B was held for 7 minutes to re-equilibrate the column. Compound A eluted at approximately 3.50 min. […]

Molecules are shown by their SMILES.

Consider `Nc1cc(C(F)(F)F)c(-c2cc(N3CCOCC3)nc(N3CCOCC3)n2)cn1` [Compound A, 5-(2,6-dimorpholinopyrimidin-4-yl)-4-(trifluoromethyl)pyridin-2-amine], for which the “gross pathology of tumors” value in series [1] (50 mg/kg/day via gavage, 2 and 6 weeks) was “central pallor and, eventually, central necrosis”. Moreover, the “Chalkley count of CD31-positive microvessels: size and number of blood vessels” value in series [1] (before versus after treatment) is given as “starkly reduced”. Further, the “tumor microvasculature, anti-CD31 stain” value in series [1] (center of tumor treated for 6 weeks) is “diminished”. For the same compound, the “Compound A levels in tumor tissues” value in series [2] is “consistently in the micro-molar range”.
